Measured values reported in ChEMBL document CHEMBL1140306 (J Med Chem, 2005).

Tests used:
Acetylcholinesterase [1] = target: T1, Acetylcholinesterase (Homo sapiens, UniProt P22303); assay: Inhibition of human AChE induced beta-amyloid aggregation in thioflavin T-based fluorometric assay; format: functional; parameters: concentration or dose not given beside the values; details: concentration not given here
Cholinesterase = Cholinesterase (Homo sapiens, UniProt P06276); assay: Inhibition of isolated human BuChE
Acetylcholinesterase [2] = target: T1, Acetylcholinesterase; assay: Inhibition of recombinant human AChE
[3] = target: Cholinesterases; ACHE & BCHE (Homo sapiens) (UniProt P06276+P22303); assay: Ratio of IC50 for human BuChE and AChE; format: protein assay
Sequence of Cholinesterases; ACHE & BCHE (Homo sapiens) (P06276 whole entry, looked up): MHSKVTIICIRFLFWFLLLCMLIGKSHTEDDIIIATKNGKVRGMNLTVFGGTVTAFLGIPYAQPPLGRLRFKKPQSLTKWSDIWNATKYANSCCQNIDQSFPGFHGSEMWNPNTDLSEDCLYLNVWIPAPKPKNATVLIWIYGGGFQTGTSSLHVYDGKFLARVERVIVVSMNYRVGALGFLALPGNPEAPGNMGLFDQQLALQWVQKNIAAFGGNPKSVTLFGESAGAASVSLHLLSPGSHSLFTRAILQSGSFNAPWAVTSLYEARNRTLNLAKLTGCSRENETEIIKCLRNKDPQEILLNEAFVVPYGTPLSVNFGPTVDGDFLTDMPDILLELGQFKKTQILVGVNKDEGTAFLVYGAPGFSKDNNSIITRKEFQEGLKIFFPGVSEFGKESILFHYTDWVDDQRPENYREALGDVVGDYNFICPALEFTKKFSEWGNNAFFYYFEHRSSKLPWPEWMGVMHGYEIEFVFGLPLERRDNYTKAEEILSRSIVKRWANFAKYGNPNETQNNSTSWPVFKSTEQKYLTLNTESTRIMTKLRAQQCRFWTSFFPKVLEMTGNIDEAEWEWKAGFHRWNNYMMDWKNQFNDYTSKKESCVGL
Sequence of Cholinesterases; ACHE & BCHE (Homo sapiens) (P22303 whole entry, looked up): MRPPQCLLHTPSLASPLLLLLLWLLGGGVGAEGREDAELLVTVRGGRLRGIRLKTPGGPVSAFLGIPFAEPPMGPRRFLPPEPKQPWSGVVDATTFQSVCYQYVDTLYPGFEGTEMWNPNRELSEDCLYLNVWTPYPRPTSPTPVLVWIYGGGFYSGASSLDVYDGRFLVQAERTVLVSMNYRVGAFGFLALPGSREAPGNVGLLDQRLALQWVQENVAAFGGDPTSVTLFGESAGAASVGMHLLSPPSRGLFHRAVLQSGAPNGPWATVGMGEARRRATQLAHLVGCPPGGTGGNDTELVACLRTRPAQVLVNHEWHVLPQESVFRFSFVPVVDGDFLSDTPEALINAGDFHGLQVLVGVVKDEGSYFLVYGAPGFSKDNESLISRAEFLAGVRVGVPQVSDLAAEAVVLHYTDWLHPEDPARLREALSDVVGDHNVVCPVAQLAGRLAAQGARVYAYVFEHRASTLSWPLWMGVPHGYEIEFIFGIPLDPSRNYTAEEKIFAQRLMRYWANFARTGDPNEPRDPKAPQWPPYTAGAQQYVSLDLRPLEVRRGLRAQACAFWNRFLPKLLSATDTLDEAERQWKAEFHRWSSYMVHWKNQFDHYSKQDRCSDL

Sequence of Cholinesterase (P06276 whole entry): as the sequence (P06276 whole entry, looked up) above
T1 sequence (P22303 whole entry): as the sequence (P22303 whole entry, looked up) above

CNC(=O)Oc1cccc(CN(C)CCCOc2ccc3c(c2)O/C(=C\c2cccc4ccccc24)C3=O)c1
inhibition (Acetylcholinesterase [1]): 37.2% | IC50 (Cholinesterase): 0.0443 µM | IC50 (Acetylcholinesterase [2]): 0.00686 µM | Ratio [3]: 6.45

CNC(=O)Oc1cccc(CN(C)CCCCCCCOc2ccc3c(c2)O/C(=C\c2c4ccccc4cc4ccccc24)C3=O)c1
inhibition (Acetylcholinesterase [1]): 65.3% | IC50 (Cholinesterase): 0.761 µM | IC50 (Acetylcholinesterase [2]): 0.0791 µM | Ratio [3]: 9.6

CNC(=O)Oc1cccc(CN(C)CCCCCCCOc2ccc3c(c2)C/C(=C\c2cc(OC)c(OC)c(OC)c2)C3=O)c1
inhibition (Acetylcholinesterase [1]): 32.8% | IC50 (Cholinesterase): 0.0813 µM | IC50 (Acetylcholinesterase [2]): 0.0018 µM | Ratio [3]: 45.2

CNC(=O)Oc1cccc(CN(C)CCCCCCCOc2ccc3c(c2)OC/C(=C\c2cc(OC)c(OC)c(OC)c2)C3=O)c1
inhibition (Acetylcholinesterase [1]): 45.3% | IC50 (Cholinesterase): 0.153 µM | IC50 (Acetylcholinesterase [2]): 0.00981 µM | Ratio [3]: 15.6

CNC(=O)Oc1cccc(CN(C)CCCOc2ccc3c(c2)O/C(=C\c2ccc4ccccc4c2)C3=O)c1
inhibition (Acetylcholinesterase [1]): 35% | IC50 (Cholinesterase): 0.0703 µM | IC50 (Acetylcholinesterase [2]): 0.00341 µM | Ratio [3]: 20.6

CNC(=O)Oc1cccc(CN(C)CCCCCCCOc2ccc3c(c2)O/C(=C\c2cccc4ccccc24)C3=O)c1
inhibition (Acetylcholinesterase [1]): 66.7% | IC50 (Cholinesterase): 0.0402 µM | IC50 (Acetylcholinesterase [2]): 0.00276 µM | Ratio [3]: 14.5

CNC(=O)Oc1cccc(CN(C)CCCOc2ccc3c(=O)c4ccccc4oc3c2)c1
inhibition (Acetylcholinesterase [1]): < 10%

CNC(=O)Oc1cccc(CN(C)CCCCCCCOc2ccc3c(=O)c4ccccc4oc3c2)c1
inhibition (Acetylcholinesterase [1]): < 10% | Ratio [3]: 51.6

CNC(=O)Oc1cccc(CN(C)CCCCCCCOc2ccc3c(c2)O/C(=C\c2cc(OC)c(OC)c(OC)c2)C3=O)c1
inhibition (Acetylcholinesterase [1]): 41% | IC50 (Cholinesterase): 0.136 µM | IC50 (Acetylcholinesterase [2]): 0.00052 µM | Ratio [3]: 261

CNC(=O)Oc1cccc(CN(C)CCCCCCCOc2ccc3c(c2)O/C(=C\c2ccc(Cl)c(Cl)c2)C3=O)c1
inhibition (Acetylcholinesterase [1]): 49.1% | IC50 (Cholinesterase): 0.0946 µM | IC50 (Acetylcholinesterase [2]): 0.008 µM | Ratio [3]: 11.8

CNC(=O)Oc1ccc2c(c1)[C@]1(C)CCN(C)[C@@H]1N2C
inhibition (Acetylcholinesterase [1]): 30%

CNC(=O)Oc1cccc(CN(C)CCCOc2ccc3c(c2)O/C(=C\c2cc(OC)c(OC)c(OC)c2)C3=O)c1
inhibition (Acetylcholinesterase [1]): 29.2% | IC50 (Cholinesterase): 0.155 µM | IC50 (Acetylcholinesterase [2]): 0.00299 µM | Ratio [3]: 51.8

CNC(=O)Oc1cccc(CN(C)CCCCCCCOc2ccc3c(c2)O/C(=C\c2cc(Cl)cc(Cl)c2)C3=O)c1
inhibition (Acetylcholinesterase [1]): 47.6% | IC50 (Cholinesterase): 0.13 µM | IC50 (Acetylcholinesterase [2]): 0.0446 µM | Ratio [3]: 2.91

CNC(=O)Oc1cccc(CN(C)CCCCCCCOc2ccc3c(c2)OCC3=O)c1
inhibition (Acetylcholinesterase [1]): 17.5% | IC50 (Cholinesterase): 11.4 µM | Ratio [3]: 7.08

CN(CCCCCCCOc1ccc2c(c1)O/C(=C\c1cccc3ccccc13)C2=O)Cc1cccc(O)c1
inhibition (Acetylcholinesterase [1]): 49.5% | Ratio [3]: 0.09

CNC(=O)Oc1cccc(CN(C)CCCCCCCOc2ccc3c(c2)CC/C(=C\c2cc(OC)c(OC)c(OC)c2)C3=O)c1
inhibition (Acetylcholinesterase [1]): 33.3% | IC50 (Cholinesterase): 0.0844 µM | IC50 (Acetylcholinesterase [2]): 0.00494 µM | Ratio [3]: 17.1

CNC(=O)Oc1cccc(CN(C)CCCCCCCOc2ccc3c(c2)O/C(=C\c2ccccc2)C3=O)c1
inhibition (Acetylcholinesterase [1]): 43.3% | IC50 (Cholinesterase): 0.0579 µM | IC50 (Acetylcholinesterase [2]): 0.00195 µM | Ratio [3]: 29.7
